According to US5679671A, “Amino acid derivative” (Eisai Co., Ltd., priority 1993, dated 1997):
Values belong to the compound of their own block, whether it stands above or below them.

How the values were obtained:
ACE = biological target: T1, ACE (Rattus norvegicus, UniProt P47820); assay: ACE inhibition activity using rat lung (Experiment A-2); assay type: biochemical; conditions: rat lung membrane fraction, borate buffer pH 8.3
T1 construct: membrane fraction prepared from rat lung; from tissue; host or cells: rat lung, membrane fraction (method of Wu-Wong et al.)
T1 sequence (P47820 36-1313): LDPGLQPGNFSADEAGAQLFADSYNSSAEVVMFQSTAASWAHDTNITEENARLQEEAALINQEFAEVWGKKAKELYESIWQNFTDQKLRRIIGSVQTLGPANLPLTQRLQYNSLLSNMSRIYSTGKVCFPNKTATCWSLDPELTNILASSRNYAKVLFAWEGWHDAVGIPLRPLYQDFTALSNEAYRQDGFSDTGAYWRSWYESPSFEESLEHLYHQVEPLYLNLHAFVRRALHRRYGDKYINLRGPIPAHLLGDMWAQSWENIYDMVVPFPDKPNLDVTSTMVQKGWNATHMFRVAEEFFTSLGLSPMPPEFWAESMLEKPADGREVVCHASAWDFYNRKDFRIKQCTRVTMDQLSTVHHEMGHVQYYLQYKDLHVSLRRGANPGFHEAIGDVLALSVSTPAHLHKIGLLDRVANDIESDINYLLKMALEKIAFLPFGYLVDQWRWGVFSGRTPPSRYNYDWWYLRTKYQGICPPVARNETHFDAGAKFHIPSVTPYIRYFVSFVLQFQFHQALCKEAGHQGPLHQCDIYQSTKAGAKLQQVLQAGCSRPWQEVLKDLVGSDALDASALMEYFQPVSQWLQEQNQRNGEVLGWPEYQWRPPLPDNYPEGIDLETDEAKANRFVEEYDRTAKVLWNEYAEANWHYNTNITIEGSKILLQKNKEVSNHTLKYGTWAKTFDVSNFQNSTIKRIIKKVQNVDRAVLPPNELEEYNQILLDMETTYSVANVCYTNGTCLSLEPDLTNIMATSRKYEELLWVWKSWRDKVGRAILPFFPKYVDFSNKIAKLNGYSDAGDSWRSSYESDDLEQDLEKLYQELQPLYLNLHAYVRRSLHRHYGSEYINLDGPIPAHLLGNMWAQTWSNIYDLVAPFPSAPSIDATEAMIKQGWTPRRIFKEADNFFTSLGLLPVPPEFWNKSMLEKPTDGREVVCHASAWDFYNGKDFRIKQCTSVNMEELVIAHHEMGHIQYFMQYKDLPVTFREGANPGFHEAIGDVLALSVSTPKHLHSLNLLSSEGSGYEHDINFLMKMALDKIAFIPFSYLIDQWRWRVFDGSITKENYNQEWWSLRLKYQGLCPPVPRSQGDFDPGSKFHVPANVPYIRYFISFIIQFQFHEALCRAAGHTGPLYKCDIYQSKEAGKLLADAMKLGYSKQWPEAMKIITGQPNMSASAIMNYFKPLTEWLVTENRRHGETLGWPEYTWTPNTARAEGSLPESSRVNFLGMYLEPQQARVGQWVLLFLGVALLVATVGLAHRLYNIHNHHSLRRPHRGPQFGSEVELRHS
Experimental: The ACE inhibition activity was determined by using a membrane fraction prepared from rat lung in accordance with the method of Wu-Wong et al. (Characterization of Endthelin Converting Enzyme in Rat Lung., Junshyum R. Wu-Wong, Gerald, P. Budzik, Edward M. Devine and Terry J. Opgenorth, Biochem. Biophys. Res. Commun., 1990, 171, 1291-1296.).
The ACE activity was determined with the use of a modification (modified to a borate buffer, pH 8.3) of the method of Cushman and Cheung (Spectrophotometric Assay and Properties of the Angiotensin-Converting Enzyme of Rabbit Lung., Cushman, D. W. and Cheung H. S., 1971, 20, 1637-1648.).
In the presence of ACE, the hippurate liberated from hippuryl-histidyl-leucine (Hippuryl-His-Leu (PeptideInstitute Inc., Japan)) was extracted with ethyl acetate and then the absorbance was measured at a wavelength of 228 nm.
With respect to the ACE inhibition activity, the inhibitor was added to the experimental system as described above in such a manner as to give the final concentrations of 1, 3, 10, 30, 100, 300 and 1000 nM, an inhibition curve was prepared, and then the concentration at which 50% inhibition was achieved was taken as IC50.

[1] = biological target: T2, vasopressin (V2) receptor (Rattus norvegicus, UniProt Q00788); assay: V2 receptor binding assay, rat kidney membrane (Experiment E-3); conditions: [3H]-Arg-vasopressin, pH 7.4
T2 construct: rat kidney (V2); from tissue; host or cells: rat kidney membranes
Experimental: (§1) Membrane specimens of rat liver (V1) and rat kidney (V2) were used. 100,000 counts (3.69 nM) of [^3 H]-Arg-vasopressin, 25 μg (1 mg protein/ml) of each membrane specimen and a test medicament (10^-7 to 10^-5 M) were incubated in a total volume of 250 μl of an assay buffer (pH=7.4) containing 10 mM of MgCl2, 2 mM of EGTA and 20 mM of HEPES at 4° C. over day and night. Then, the incubation was washed with 5-ml portions of the buffer 5 times to thereby separate the membrane specimen binding to vasopressin followed by filtration with the use of a glass filter (GF/F). This glass filter was dried for about 3 hours and mixed with a cocktail for liquid scintillation (10 ml, ACSII). After allowing to stand overnight, the amount of the [^3 H]-Arg-vasopressin binding to the membrane was determined with a liquid scintillation counter and the inhibition ratio was calculated in accordance with the following formula: […]
(§2) B1; the amount of [^3 H]-Arg-vasopressin binding to the membrane in the presence of excessive vasopressin (10 μM)
(§3) C0; the amount of [^3 H]-Arg-vasopressin binding to the membrane in the absence of the test medicament and
(§4) C1; the amount of [^3 H]-Arg-vasopressin binding to the membrane in the presence of both the test medicament in a known amount and [^3 H]-Arg-vasopressin. […]

[2] = biological target: T2, vasopressin (V2) receptor; assay: V2 receptor binding assay, rat kidney membrane (Experiment F-2); conditions: [3H]-Arg-vasopressin, pH 7.4
Experimental: as §1, with “in” for “in a total volume of”, “μl in total” for “μl”
as §2, §3, §4

[3] = biological target: T3, vasopressin (V1) receptor (Rattus norvegicus, UniProt P30560); assay: V1 receptor binding assay, rat liver membrane (Experiment F-2); conditions: [3H]-Arg-vasopressin, pH 7.4
T3 construct: Membrane specimens of rat liver (V1); from tissue; host or cells: rat liver membranes
Experimental: as §1, with “in” for “in a total volume of”, “μl in total” for “μl”
as §2, §3, §4

T2 sequence (Q00788 whole entry): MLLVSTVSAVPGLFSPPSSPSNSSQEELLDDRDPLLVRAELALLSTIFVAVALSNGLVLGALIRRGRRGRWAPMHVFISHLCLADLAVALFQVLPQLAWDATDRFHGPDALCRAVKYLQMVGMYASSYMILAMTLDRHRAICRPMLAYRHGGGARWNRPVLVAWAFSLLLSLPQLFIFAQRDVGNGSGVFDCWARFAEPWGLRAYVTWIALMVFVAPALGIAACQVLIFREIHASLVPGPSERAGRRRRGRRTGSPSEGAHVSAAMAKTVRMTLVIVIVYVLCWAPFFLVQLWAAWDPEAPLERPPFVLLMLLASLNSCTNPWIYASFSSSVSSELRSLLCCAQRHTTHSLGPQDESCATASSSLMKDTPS
T3 sequence (P30560 whole entry): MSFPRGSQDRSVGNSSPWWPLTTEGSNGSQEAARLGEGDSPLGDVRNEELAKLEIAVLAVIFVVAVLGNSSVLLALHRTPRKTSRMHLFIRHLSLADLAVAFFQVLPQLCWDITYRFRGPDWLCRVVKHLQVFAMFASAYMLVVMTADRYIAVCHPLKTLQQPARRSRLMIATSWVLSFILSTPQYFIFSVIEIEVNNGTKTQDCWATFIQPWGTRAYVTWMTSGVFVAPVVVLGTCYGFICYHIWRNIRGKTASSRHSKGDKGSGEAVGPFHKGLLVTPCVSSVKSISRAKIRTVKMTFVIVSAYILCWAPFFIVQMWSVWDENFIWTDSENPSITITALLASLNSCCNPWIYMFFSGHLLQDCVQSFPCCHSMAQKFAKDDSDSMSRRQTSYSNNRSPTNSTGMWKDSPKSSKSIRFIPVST

IC50 (ACE): 13 nM
Structure (SMILES): CC[C@H](C)[C@H](S)C(=O)NC1CCc2ccccc2N(CC(=O)O)C1=O (stereo partly drawn) [Example A-9, 1-Carboxymethyl-3-[(2S,3S)-2-mercapto-3-methylvarelylamino]-1H-[1]benzazepin-2-one]

IC50 (ACE): 11 nM
Structure (SMILES): CC[C@H](C)[C@H](S)C(=O)N[C@H]1CCc2ccccc2N(CC(=O)O)C1=O [Example A-11, (S)-3-[(2S,3S)-2-Mercapto-3-methylvarelylamino]-1-carboxymethyl-2,3,4,5-tetrahydro-1H-[1]benzazepin-2-one]

IC50 [1]: 4490 nM
Structure (SMILES): CC(C)[C@H](S)C(=O)N[C@H]1Cc2ccc(-c3ccccc3)cc2[C@H]2CCC[C@@H](C(=O)O)N2C1=O [Example E-10, [4S-[4α,7α(R*),12bβ]]-7-[(S)-2-Mercapto-3-methylbutyrylamino]-6-oxo-11-phenyl-1,2,3,4,6,7,8,12b-octahydropyrido[2,1-a][2]benzazepine-4-carboxylic acid]

IC50 [2]: 1390 nM
IC50 [3]: ≥ 10000 nM
Structure (SMILES): O=C(N[C@H]1CCC[C@H]2SC[C@@H](C(=O)O)N2C1=O)[C@@H](S)Cc1ccccc1 [Example F-17, [3R-[3α,6α(S*),9aβ]]-6-[[(S)-1-Oxo-2-thio-3-phenylpropyl]amino]-octahydro-5-oxothiazol[3,2-a]-azepine-3-carboxylic acid]
